Assay results from US9101638B2, “Boronic acid derivatives and therapeutic uses thereof” (Rempex Pharmaceuticals, Inc., priority 2013, dated 2015).
Like-named read-outs stand apart in the source and are kept apart here.

Tests used:
[1] = tested on: KP1005 (CTX-M-14); test: Potentiation of aztreonam, strain KP1005; assay type: cell-based
[2] = tested on: ec308 (SHV-5); test: Potentiation of aztreonam, strain ec308; assay type: cell-based; conditions: minimum BLI concentration inhibiting growth with 4 μg/mL aztreonam
[3] = tested on: ec302 (TEM-10); test: Potentiation of aztreonam, strain ec302; assay type: cell-based
[4] = tested on: KP1004 (K-2); test: Potentiation of aztreonam, strain KP1004; assay type: cell-based; conditions: minimum BLI concentration inhibiting growth with 4 μg/mL aztreonam
[5] = tested on: ECL1002; test: Potentiation of aztreonam, strain ECL1002; assay type: cell-based; conditions: minimum BLI concentration inhibiting growth with 4 μg/mL aztreonam
[6] = tested on: ec308 (SHV-5); test: Potentiation of tigemonam, strain ec308; assay type: cell-based; conditions: minimum BLI concentration inhibiting growth with 4 μg/mL tigemonam
[7] = tested on: EC1010 (CMY-6); assay type: cell-based
[8] = target: CTX-M-14 (Escherichia coli, UniProt Q9L5C7); test: Inhibition of nitrocefin cleavage by purified CTX-M-14; assay type: biochemical; conditions: nitrocefin reporter substrate, purified enzyme; read-out: Ki (CTX-M-14, NCF)
CTX-M-14, sequence (Q9L5C7 entry or part of it): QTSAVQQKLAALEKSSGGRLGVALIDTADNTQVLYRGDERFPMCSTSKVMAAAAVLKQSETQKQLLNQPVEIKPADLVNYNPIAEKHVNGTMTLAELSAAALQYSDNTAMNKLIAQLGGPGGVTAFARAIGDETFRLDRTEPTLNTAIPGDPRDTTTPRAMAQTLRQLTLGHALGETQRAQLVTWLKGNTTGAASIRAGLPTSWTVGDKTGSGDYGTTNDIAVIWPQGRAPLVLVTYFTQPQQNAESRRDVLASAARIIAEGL
Experimental: (§1) Purified enzymes were mixed with various concentrations of inhibitors in reaction buffer and incubated for 10 min at room temperature. Nitrocefin was added and substrate cleavage profiles were recorded at 490 nm every 10 sec for 10 min.

[9] = target: KPC-2 (Klebsiella pneumoniae, UniProt Q9F663); test: Inhibition of nitrocefin cleavage by purified KPC-2; assay type: biochemical; conditions: nitrocefin reporter substrate, purified enzyme; read-out: Ki (KPC-2, NCF)
KPC-2, sequence (Q9F663 25-293, looked up, species assumed): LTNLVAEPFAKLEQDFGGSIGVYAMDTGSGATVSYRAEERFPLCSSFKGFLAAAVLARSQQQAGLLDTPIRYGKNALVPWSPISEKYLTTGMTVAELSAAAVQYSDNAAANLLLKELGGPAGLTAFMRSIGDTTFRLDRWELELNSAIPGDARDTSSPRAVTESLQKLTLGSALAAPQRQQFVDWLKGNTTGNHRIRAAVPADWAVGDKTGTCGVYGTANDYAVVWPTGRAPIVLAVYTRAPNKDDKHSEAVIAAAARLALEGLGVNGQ
Experimental: as §1

[10] = target: OXA-48 (Klebsiella pneumoniae, UniProt Q6XEC0); test: Inhibition of nitrocefin cleavage by purified OXA-48; assay type: biochemical; conditions: nitrocefin reporter substrate, purified enzyme; read-out: Ki (OXA-48, NCF)
OXA-48, sequence (Q6XEC0 23-265 limits assumed): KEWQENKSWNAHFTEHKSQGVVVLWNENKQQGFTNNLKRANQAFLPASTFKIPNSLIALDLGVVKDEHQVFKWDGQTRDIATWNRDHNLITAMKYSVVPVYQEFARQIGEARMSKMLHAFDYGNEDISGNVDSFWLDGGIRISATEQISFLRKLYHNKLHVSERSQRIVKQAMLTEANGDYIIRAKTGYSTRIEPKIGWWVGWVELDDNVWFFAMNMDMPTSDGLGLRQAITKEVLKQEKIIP
Experimental: as §1

[11] = tested on: PAM1032/KPC-2; test: Biapenem potentiation in PAM1032/KPC-2 (MexAB-OprM overexpressed); assay type: cell-based, Pseudomonas aeruginosa
Experimental: (§2) Efflux of BLIs from Pseudomonas aeruginosa by the MexAB-OprM efflux pump was also evaluated. […] Due to expression of KPC-2 both strains became resistant to biapenem. […] Potency of BLIs to potentiate biapenem in these strains was determined. […] The ratio of MPC64 values for each BLI in PAM1032/KPC-2 (efflux proficient) and PAM1154/KPC-2 (efflux deficient) was determined to generate the Efflux Index (EI).

[12] = tested on: PAM1154/KPC-2; test: Biapenem potentiation in PAM1154/KPC-2 (MexAB-OprM lacking); assay type: cell-based, Pseudomonas aeruginosa
Experimental: as §2

[13] = tested on: KP1009 (CTX-M-15); test: Potentiation of tigemonam, strain KP1009; conditions: minimum BLI concentration inhibiting growth with 4 μg/mL tigemonam
[14] = tested on: KP1009 (CTX-M-15); test: Potentiation of aztreonam, strain KP1009; assay type: cell-based
[15] = tested on: EC1010 (CMY-6); test: Potentiation of aztreonam, strain EC1010; assay type: cell-based
[16] = tested on: ec302 (TEM-10); test: Potentiation of tigemonam, strain ec302; assay type: cell-based
[17] = target: SHV-12 (Klebsiella pneumoniae, UniProt P0AD64, E235K/G234S/L31Q); test: Inhibition of nitrocefin cleavage by purified SHV-12; assay type: biochemical; conditions: nitrocefin reporter substrate, purified enzyme; read-out: Ki (SHV-12, NCF)
SHV-12, sequence (P0AD64 22-286 L31Q/G234S/E235K): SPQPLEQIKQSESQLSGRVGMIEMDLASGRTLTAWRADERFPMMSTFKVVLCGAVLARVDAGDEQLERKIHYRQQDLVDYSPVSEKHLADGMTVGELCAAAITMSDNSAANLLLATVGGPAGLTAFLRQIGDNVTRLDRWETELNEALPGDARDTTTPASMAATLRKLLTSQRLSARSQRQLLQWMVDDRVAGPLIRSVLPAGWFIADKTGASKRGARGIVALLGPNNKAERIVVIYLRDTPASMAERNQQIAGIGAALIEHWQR
Experimental: as §1

SMILES	AZT MPC4 CTX-M-14 KP1005 [1]	AZT MPC4 SHV-5 ec308 [2]	AZT MPC4 TEM-10 ec302 [3]	AZT MPC4 K-2 KP1004 [4]	AZT MPC4 ECL1002 [5]	TIG MPC4 SHV-5 ec308 [6]	TIG MPC4 CMY-6 EC1010 [7]	Ki [8] [nM]	Ki [9] [nM]	Ki [10] [nM]	PAM1032/KPC-2 Biapenem MPC64 ([11]; BLI potency to decrease biapenem MIC 64-fold, 32 to 0.5 μg/ml, efflux proficient strain)	PAM1154/KPC-2 Biapenem MPC64 [12]	TIG MPC4 CTX-M-15 KP1009 [13]	AZT MPC4 CTX-M-15 KP1009 [14]	AZT MPC4 CMY-6 EC1010 [15]	TIG MPC4 TEM-10 ec302 [16]	Ki [17] [nM]	PAM1032/KPC-2 Biapenem MPC64 [11]
CSCC(=O)N[C@H]1Cc2cccc(C(=O)O)c2OB1O [Compound 13, (R)-2-hydroxy-3-(2-(methylthio)acetamido)-3,4-dihydro-2H-benzo[e][1,2]oxaborinine-8-carboxylic acid]	X (key: X = MIC of less than 1 μg/mL; Y = MIC of 1 μg/mL to 10 μg/mL; Z = MIC of greater than 10 μg/mL)	X (X = MIC of less than 1 μg/mL)	Y (key: X = MIC of less than 1 μg/mL; Y = MIC of 1 μg/mL to 10 μg/mL; Z = MIC of greater than 10 μg/mL)	X (X = MIC of less than 1 μg/mL)	X (X = MIC of less than 1 μg/mL)	X (X = MIC of less than 1 μg/mL)	X (key: X = MIC of less than 1 μg/mL; Y = MIC of 1 μg/mL to 10 μg/mL; Z = MIC of greater than 10 μg/mL)	< 1	> 10	< 1	Y (Y = 10 to 40)	X (key: X = Less than 10; Y = 10 to 40; Z Greater than 40)	X (X = MIC of less than 1 μg/mL)					
NC(=O)N[C@H]1Cc2cccc(C(=O)O)c2OB1O [Compound 6, (R)-2-hydroxy-3-ureido-3,4-dihydro-2H-benzo[e][1,2]oxaborinine-8-carboxylic acid]	Y (key: X = MIC of less than 1 μg/mL; Y = MIC of 1 μg/mL to 10 μg/mL; Z = MIC of greater than 10 μg/mL)	Y (Y = MIC of 1 μg/mL to 10 μg/mL)	Z (key: X = MIC of less than 1 μg/mL; Y = MIC of 1 μg/mL to 10 μg/mL; Z = MIC of greater than 10 μg/mL)	X (X = MIC of less than 1 μg/mL)	Z (Z = MIC of greater than 10 μg/mL)	Z (Z = MIC of greater than 10 μg/mL)	X (key: X = MIC of less than 1 μg/mL; Y = MIC of 1 μg/mL to 10 μg/mL; Z = MIC of greater than 10 μg/mL)	1 to 10				X (key: X = Less than 10; Y = 10 to 40; Z Greater than 40)	Y (Y = MIC of 1 μg/mL to 10 μg/mL)	Y (key: X = MIC of less than 1 μg/mL; Y = MIC of 1 μg/mL to 10 μg/mL; Z = MIC of greater than 10 μg/mL)	Y (key: X = MIC of less than 1 μg/mL; Y = MIC of 1 μg/mL to 10 μg/mL; Z = MIC of greater than 10 μg/mL)	Z (key: X = MIC of less than 1 μg/mL; Y = MIC of 1 μg/mL to 10 μg/mL; Z = MIC of greater than 10 μg/mL)	1 to 10	X (key: X = Less than 10; Y = 10 to 40; Z Greater than 40)
